Data as given in patent US20180118721A1, “PYRIMIDINE DERIVATIVES” (Merck Patent GmbH, priority 2015, published 2018).
pIC50: −log10 of the molar value.

The molecules below were run against T1, purified human recombinant MTH1 (human MTH1, residues 42-197) (Homo sapiens, UniProt P36639) (assay: MTH1 enzymatic assay (luminescence-based, PPiLight)). Conditions: 6 μM 8-oxo-dGTP, Table 1, grouped.
T1 construct: human MTH1, residues 42-197, Uniprot-ID: P36639, expressed in E. coli; made in house; host or cells: E. coli
Type: biochemical
Procedure: The IC50 value was determined by a MTH1 enzymatic assay. The assay comprises the principal steps of incubating a mixture of MTH1, the compound in question at different concentrations and 8-oxo-2′-deoxyguanosine-5′-triphosphate (8-oxo-dGTP) in assay buffer. Nucleotide triphosphate hydrolysis by MTH1, i.e. decomposition of 8-oxo-2′-deoxyguanosine-5′-triphosphate, produces 8-oxo-2′-deoxyguanosine-5′-monophosphate (8-oxo-dGMP) and pyrophosphate (PPi). The amount of generated pyrophosphate (PPi) is then measured by a bioluminescent reaction. In detail: The MTH1 (human mutT homologue 1) enzymatic assay is performed as a luminescence-based 384-well assay. […] The assay buffer contains 100 mM Tris-acetate pH 7.5, 40 mM NaCl, 10 mM Mg(OAc)2, 0.005% Tween 20 and 2 mM dithiothreitol (DTT). […] Then, in a second step, the substrate 8-oxo-dGTP is added and the reaction mixture is incubated for 30 minutes at 22° C. The pharmacologically relevant assay volume is 5 PI. The final concentrations in the assay during incubation of the reaction mixture are 0.1-0.2 nM, typically 0.1 nM, MTH1 and 6 μM 8-oxo-dGTP. After incubation of the reaction mixture, the generation of pyrophosphate (PPi) as a result of nucleotide triphosphate (8-oxo-dGTP) hydrolysis by MTH1 is detected using the PPiLight inorganic pyrophosphate assay kit (Lonza) (third step). 2 to 5 μl, such as 3 to 5 μl, typically 3 or 4 μl, for instance 4 μl, of a 1:1 mixture of PPiLight converting reagent (AMP) and PPiLight detection reagent are added to the reaction mixture. In the presence of pyrophosphate, the detection reagent catalyzes the conversion of AMP to ATP. Luciferase then produces light from the newly formed ATP and luciferin. The amount of light produced is directly proportional to the amount of PPi in the sample. Following signal development for 1 h the plates are analysed in an EnVision (PerkinElmer) microplate reader using the ultra sensitive luminescence option. Data are processed employing the Genedata Screener software. In particular, IC50 values are determined in the usual manner (using the Hill Equation) by fitting a dose-response curve to the data points using nonlinear regression analysis.
Hill Equation: Y=S0+(Sinf−S0)/(1+(10^logIC50/10^c)^n); Y: luminescence signal (response), S0: activity level at zero concentration of test compound, Sinf=activity level at infinite concentration, Hill coefficient n=measure of the slope at IC50, c=concentration in logarithmic units corresponding to the values on the x-axis of the dose response curve plot

Structure (SMILES) | pIC50
Nc1nc(NC2CC2)cc(N2CC[C@](O)(c3ccccc3)C2)n1 (single isomer, unassigned) [Example 37] | 7.00 to 9.00
Nc1nc(NC2CC2)cc(N2CC[C@@](O)(c3ccccc3)C2)n1 (single isomer, unassigned) [Example 38] | 7.00 to 9.00
CNc1cc(N2CCC[C@@](O)(c3ccccc3)C2)nc(N)n1 (single isomer, unassigned) [Example 90] | 7.00 to 9.00
CNc1cc(N2CCCCC2Cc2ccccc2OC)nc(N)n1 (single isomer, unassigned) [Example 106] | > 9.00
CNc1cc(N2CCC(CO)C2)nc(N)n1 (stereo not drawn) [Example 1, [1-(2-amino-6-methylamino-pyrimidin-4-yl)-pyrrolidin-3-yl]-methanol] | > 9.00
Nc1nc(NC2CC2)cc(N2CCC(CO)C2)n1 (stereo not drawn) [Example 2, [1-(2-amino-6-cyclopropyl amino-pyrimidin-4-yl)-pyrrolidin-3-yl]-methanol] | > 9.00
CNc1cc(N2CCC(OC)C2)nc(N)n1 (stereo not drawn) [Example 9, 86-(3-methoxy-pyrrolidin-1-yl)-N^4-methyl-pyrimidine-2,4-diamine-formate] | > 9.00
COC1CCN(c2cc(NC3CC3)nc(N)n2)C1 (stereo not drawn) [Example 10, N^4-cyclopropyl-6-(3-methoxy-pyrrolidin-1-yl)-pyri midine-2,4-diamine-formate] | 7.00 to 9.00
Nc1nc(NC2CC2)cc(N2CCC[C@@H]2CO)n1 [Example 11, [(R)-1-(2-amino-6-cyclopropylamino-pyrimidin-4-yl)-pyrrolidin-2-yl]-methanol-formate] | 7.00 to 9.00
CCC1(O)CCN(c2cc(NC3CC3)nc(N)n2)C1 (stereo not drawn) [Example 40, 1-(2-Amino-6-cyclopropylamino-pyrimidin-4-yl)-3-ethyl-pyrrolidin-3-ol] | 7.00 to 9.00
CC1C(c2ccccc2)CCN1c1cc(NC2CC2)nc(N)n1 (stereo not drawn) [Example 41, N4-Cyclopropyl-6-(2-methyl-3-phenyl-pyrrolidin-1-yl)-pyrimidine-2,4-diamine] | 7.00 to 9.00
Nc1nc(NC2CC2)cc(N2CCC(O)(C(F)(F)F)C2)n1 (stereo not drawn) [Example 42, 1-(2-Amino-6-cyclopropylamino-pyrimidin-4-yl)-3-trifluoromethyl-pyrrolidin-3-ol] | 7.00 to 9.00
NC(=O)[C@H]1CCN(c2cc(NC3CC3)nc(N)n2)C1 [Example 61, (S)-1-(2-Amino-6-cyclopropylamino-pyrimidin-4-yl)-pyrrolidine-3-carboxylic acid amide] | 7.00 to 9.00
CNc1cc(N2CC[C@@H](CO)C2)nc(N)n1 [Example 64, [(R)-1-(2-Amino-6-methylamino-pyrimidin-4-yl)-pyrrolidin-3-yl]-methanol] | > 9.00
CNc1cc(N2CC[C@H](CO)C2)nc(N)n1 [Example 65, [(S)-1-(2-Amino-6-methylamino-pyrimidin-4-yl)-pyrrolidin-3-yl]-methanol] | > 9.00
Nc1nc(NC2CC2)cc(N2CC[C@H](CO)C2)n1 [Example 67, [(S)-1-(2-Amino-6-cyclopropylamino-pyrimidin-4-yl)-pyrrolidin-3-yl]-methanol] | 7.00 to 9.00
CC(C)Nc1cc(N2CCC(F)(F)C2)nc(N)n1 [Example 69, 6-(3,3-Difluoro-pyrrolidin-1-yl)-N4-isopropyl-pyrimidine-2,4-diamine] | 7.00 to 9.00
Nc1nc(NCC2CC2)cc(N2CCC(F)(F)C2)n1 [Example 71, N4-Cyclopropylmethyl-6-(3,3-difluoro-pyrrolidin-1-yl)-pyrimidine-2,4-diamine] | 7.00 to 9.00
Nc1nc2c(c(N3CC[C@H](O)C3)n1)CCCN2 [Example 73, (S)-1-(2-Amino-5,6,7,8-tetrahydro-pyrido[2,3-d]pyrimidin-4-yl)-pyrrolidin-3-ol-formiate] | 7.00 to 9.00
CNc1cc(N2CCCC(O)(c3ccccc3)C2)nc(N)n1 (stereo not drawn) [Example 79, 1-(2-Amino-6-methylamino-pyrimidin-4-yl)-3-phenyl-piperidin-3-ol] | 7.00 to 9.00
Nc1nc(NC2CC2)cc(N2CCCC2C(=O)O)n1 (stereo not drawn) [Example 80, 1-(2-Amino-6-cyclopropylamino-pyrimidin-4-yl)-pyrrolidine-2-carboxylic acid] | < 7.00
CNc1cc(N2CCCC2Cc2ccccc2OC)nc(N)n1 (stereo not drawn) [Example 82, 6-[2-(2-Methoxy-benzyl)-pyrrolidin-1-yl]-N4-methyl-pyrimidine-2,4-diamine] | > 9.00

The next lines start with the values.

pIC50 | Structure (SMILES)
7.00 to 9.00 | Nc1nc(NC2CC2)cc(N2CCC(F)(F)C2)n1 [Example 4, N^4-cyclopropyl-6-(3,3-difluoro-pyrrolidin-1-yl)-pyrimidine-2,4-diamine]
7.00 to 9.00 | Nc1nc(NC2CC2)cc(N2CCC(O)C2)n1 (stereo not drawn) [Example 6, 1-(2-amino-6-cyclopropylamino-pyrimidin-4-yl)-pyrrolidin-3-ol]
7.00 to 9.00 | CNc1cc(N2CCC[C@H]2CO)nc(N)n1 [Example 12, [(S)-1-(2-amino-6-methylamino-pyrimidin-4-yl)-pyrrolidin-2-yl]-methanol]
7.00 to 9.00 | Nc1nc(NC2CC2)cc(N2CCC[C@H]2CO)n1 [Example 13, [(S)-1-(2-amino-6-cyclopropylamino-pyrimidin-4-yl)-pyrrolidin-2-yl]-methanol]
> 9.00 | Nc1nc(NC2CC2)cc(N2CCCC2Cc2ccccc2Cl)n1 (stereo not drawn) [Example 36, 6-[2-(2-Chloro-benzyl)-pyrrolidin-1-yl]-N4-cyclopropyl-pyrimidine-2,4-diamine]
7.00 to 9.00 | CC1CCN(c2cc(NC3CC3)nc(N)n2)C1C (stereo not drawn) [Example 39, N4-Cyclopropyl-6-(2,3-dimethyl-pyrrolidin-1-yl)-pyrimidine-2,4-diamine]
7.00 to 9.00 | NC(=O)[C@@H]1CCN(c2cc(NC3CC3)nc(N)n2)C1 [Example 59, (R)-1-(2-Amino-6-cyclopropylamino-pyrimidin-4-yl)-pyrrolidine-3-carboxylic acid amide]
7.00 to 9.00 | CNc1cc(N2CC[C@@H](O)C2)nc(N)n1 [Example 60, (R)-1-(2-Amino-6-methylamino-pyrimidin-4-yl)-pyrrolidin-3-ol]
> 9.00 | Nc1nc(NC2CC2)cc(N2CC[C@@H](CO)C2)n1 [Example 66, [(R)-1-(2-Amino-6-cyclopropylamino-pyrimidin-4-yl)-pyrrolidin-3-yl]-methanol]
7.00 to 9.00 | CCNc1cc(N2CCC(F)(F)C2)nc(N)n1 [Example 68, 6-(3,3-Difluoro-pyrrolidin-1-yl)-N4-ethyl-pyrimidine-2,4-diamine]
> 9.00 | Nc1nc2c(c(N3CC[C@@H](O)C3)n1)CCCN2 [Example 70, (R)-1-(2-Amino-5,6,7,8-tetrahydro-pyrido[2,3-d]pyrimidin-4-yl)-pyrrolidin-3-ol]
7.00 to 9.00 | CCCNc1cc(N2CCC(F)(F)C2)nc(N)n1 [Example 72, 6-(3,3-Difluoro-pyrrolidin-1-yl)-N4-propyl-pyrimidine-2,4-diamine]
< 7.00 | FC1(F)CCN(c2ncnc3c2CCCN3)C1 [Example 74, 4-(3,3-Difluoro-pyrrolidin-1-yl)-5,6,7,8-tetrahydro-pyrido[2,3-d]pyrimidine]
< 7.00 | NC(=O)[C@@H]1CCN(c2nc(N)nc3c2CCCN3)C1 [Example 75, (R)-1-(2-Amino-5,6,7,8-tetrahydro-pyrido[2,3-d]pyrimidin-4-yl)-pyrrolidine-3-carboxylic acid amide-trifluoroacetate]
